In patent publication US4268505A, “Pharmaceutical composition comprising a nitrogen-containing polysaccharide and an antibiotic agent, and a method of treating an infectious disease therewith” (priority 1979, dated 1981):

Experiments:
[1] = tested on: Proteus mirabilis; experiment: Minimum growth inhibiting concentration, agar plate method; format: cell-based
Experimental: (§1) The drug-resistant strains of bacterial species were obtained in the manner described below according to the concentration gradient plate culture (see "Chemotherapeutics and Resistant Bacteria", 1970, By Chikara Watanabe, Asakura Shoten).
(§2) The agar plates with drug concentration gradient ranging from 10 to 100 μg/ml were prepared, and each strain of the bacterial species to be tested was streaked or smeared. These plates were kept at 37° C. for several days and the colony formed in the high concentration area was isolated and again similarly inoculated to the plates. Such operation was repeated several times to obtain the bacterial strains resistant to the respective drugs.
(§3) The drug sensitivity of the drug-resistant strains and that of the original strains (sensitive strains) were compared by way of the minimum growth inhibiting concentration (hereinafter abbreviated as MIC) according to the Standard Method of the Japanese Chemotherapeutical Association (see "Chemotherapy" Vol. 22, No. 6, 1126 (1974), by MIC Determination Method Reform Committee). More specifically, double diluted systems of each drug were prepared and they were mixed with the heart-infusion agar medium (Nippon Eiyo Kagaku Co., Ltd.) to form the agar plates. Then a loopful of each strain, which had been cultured at 37° C. in Trypto-soy bouillon (Nippon Eiyo Kagaku Co., Ltd.) for 18 hr. was smeared on each the plate, and after culturing for 18 hr. at 37° C., the growth of the strain on each plate was examined.
(§4) The amount of the present substance added is more than 10 μg/ml, preferably more than 100 μg/ml. The pH of the medium was maintained at 7.2±0.1 so that MIC would not be affected by pH of the medium.
(§5) Specimens of the drug-resistant bacterial strain were obtained according to the aforementioned concentration-gradient plate culture by using Staphylococcus aureus, Streptococcus faecalis, Escherichia coli, Salmonella enteritidis, Klebsiella pneumoniae and Pseudomonas aeruginosa.

[2] = tested on: aminobenzylpenicillin-resistant strain of Klebsiella pneumoniae; experiment: Therapeutical treatment of mice infected with aminobenzylpenicillin-resistant Klebsiella pneumoniae (Example 12); format: in vivo, male ICR-JCL mice; settings: only aminobenzylpenicillin 100 mg/kg oral, 7th day
Experimental: Similar experiments as in Example 9 were performed using the present substance obtained by the procedures described in Example 1.
An aminobenzylpenicillin-resistant strain of Klebsiella pneumoniae obtained by the procedures described in Example 1 was inoculated intraperitoneally into two groups (one group comprising 10 animals) of male ICR-JCL mice at a rate of 1×10^8 cells/mouse.
After 2 hours of the inoculation, 100 mg/kg of aminobenzyl penicillin was orally administered to each mouse of one group, and 1,000 mg/kg of the present substance simply admixtured with 100 mg/kg of aminobenzyl penicillin were orally administered to each mouse of another group. After keeping the mice under usual conditions, the rate of survival of each group was observed on 7th day with the results: […]

[3] = tested on: aminobenzylpenicillin-resistant strain of Enterobacter aerogenes; experiment: Therapeutical treatment of mice infected with aminobenzylpenicillin-resistant Enterobacter aerogenes (Example 13); format: in vivo, male ICR-JCL mice; settings: only aminobenzylpenicillin 100 mg/kg oral, 7th day
Experimental: After keeping the mice for 6 days under usual conditions, their rate of survival was determined on 7th day.

[4] = tested on: Escherichia coli; experiment: Minimum growth inhibiting concentration, agar plate method; format: cell-based; settings: for Minimum growth inhibiting concentration: strain resistant to the respective drug
Experimental: as §1, §2, §3
as §4, with “MIC has apparently been reduced to half the level or less before addition of the present substance as will be seen in Table 3 of EXAMPLE 1. The amount” for “The amount”
as §5, with “aeruginosa. The MICs of the original bacterial strains and those of the bacterial strains which have developed resistance to the respective antibiotics are summarized in Table 2.” for “aeruginosa.”

[5] = tested on: cephaloridine-resistant strain of Proteus mirabilis; experiment: Therapeutical treatment of mice infected with cephaloridine-resistant Proteus mirabilis (Example 11); format: in vivo, male ICR-JCL mice; settings: only cephaloridine 80 mg/kg i.p., 7th day
Experimental: Similar experiments of therapeutical treatment as in Example 9 was performed by using the present substance obtained by the procedures described in Example 1.
A cephaloridine-resistant strain of Proteus mirabilis obtained by the procedures described in Example 1 was inoculated into male ICR-JCL mice comprising 20 animals at a rate of 5×10^8 cells/animal. After 2 hours of the inoculation 80 mg/kg of cephalotidine was administered intraperitoneally into each of 10 mice (of 20 mice), and 50 mg/kg of the present substance and 80 mg/kg of cephaloridine were almost simultaneously administered to each of another 10 mice (of 20 mice) intraperitoneally.
After keeping the animals under usual conditions for 6 days, their rate of survival were observed on 7th day to find: […]

[6] = strain resistant to the respective antibiotic (Table 2)

Compound	Minimum growth inhibiting concentration (MIC) ([1]; original strain)	Minimum growth inhibiting concentration (MIC) [1, 6]	Minimum growth inhibiting concentration ([1]; strain resistant to the respective drug, present substance not added (Table 3))	rate of survival [2]	rate of survival [3]	Minimum growth inhibiting concentration (MIC) ([4]; original strain)	Minimum growth inhibiting concentration (MIC) [4, 6]	Minimum growth inhibiting concentration ([4]; present substance added at 10 μg/ml)	Minimum growth inhibiting concentration ([4]; present substance not added (Table 3))	rate of survival [5]
CC1(C)S[C@@H]2[C@H](NC(=O)[C@H](N)c3ccccc3)C(=O)N2[C@H]1C(=O)O [AP, Aminobenzylpenicillin]	0.8 µg/mL	25 µg/mL	25 µg/mL	40%	70%					
O=C(Cc1cccs1)N[C@@H]1C(=O)N2C(C(=O)[O-])=C(C[n+]3ccccc3)CS[C@H]12 [CE, Cephaloridine]						3.1 µg/mL	25 µg/mL	12.5 µg/mL	25 µg/mL	60%
